Read-outs that look alike come from different tables or passages of the source.
What was measured:
[1] = tested on: a bacterial strain; assay type: cell-based
[2] = tested on: E. faecalis; assay type: cell-based; conditions: for MBI 26 MIC, +Teicoplanin: in combination with teicoplanin; for MIC in combination: Teicoplanin + MBI 26
[3] = tested on: K. pneumoniae; assay type: cell-based; conditions: for MIC Alone: agent alone; for MBI 26 MIC, +Erythro.: in combination with erythromycin
[4] = tested on: inherently resistant microorganisms; conditions: for MBI 26 MIC +Vancomycin: Teicoplanin table; for MIC in combination: Vancomycin +MBI 26
[5] = tested on: microorganisms with acquired resistance

Q: Which results are given for “KWKSFIKKLTSAAKKVVTTAKPLISS [MBI 26]”?
A: killing in time kill assay [1]: greater killing than either peptide or antibiotic agent alone; MIC Alone ([2]; E. faecalis 97040 VanB, agent alone): 64 µg/mL; MBI 26 MIC, +Teicoplanin ([2]; E. faecalis 97040 VanB): 8 µg/mL; MIC Alone ([2]; E. faecalis 97041 VanB, agent alone): 64 µg/mL; MBI 26 MIC, +Teicoplanin ([2]; E. faecalis 97041 VanB): 8 µg/mL; MIC Alone ([2]; E. faecalis 97042 VanB, agent alone): 64 µg/mL; MBI 26 MIC, +Teicoplanin ([2]; E. faecalis 97042 VanB): 8 µg/mL; MIC Alone ([2]; E. faecalis 97043 VanB, agent alone): 64 µg/mL; MBI 26 MIC, +Teicoplanin ([2]; E. faecalis 97043 VanB): 8 µg/mL; MIC Alone ([2]; E. faecalis 97050 VanA): 64 µg/mL; MIC in combination ([2]; E. faecalis 97050 VanA): 8 µg/mL; MIC Alone ([2]; E. faecalis 97051 VanA): 64 µg/mL; MIC in combination ([2]; E. faecalis 97051 VanA): 8 µg/mL; MIC Alone ([2]; E. faecalis 97052 VanA): 64 µg/mL; MIC in combination ([2]; E. faecalis 97052 VanA): 8 µg/mL; MIC Alone ([2]; E. faecalis 97053 VanA): 64 µg/mL; MIC in combination ([2]; E. faecalis 97053 VanA): 8 µg/mL; MIC Alone ([2]; E. faecalis 97054 VanA): 64 µg/mL; MIC in combination ([2]; E. faecalis 97054 VanA): 8 µg/mL; MIC Alone ([2]; E. faecalis 97055 VanA): 64 µg/mL; MIC in combination ([2]; E. faecalis 97055 VanA): 8 µg/mL; MIC Alone ([3]; K. pneumoniae KP001): 16 µg/mL; MBI 26 MIC, +Erythro. ([3]; K. pneumoniae KP001): 8 µg/mL; MIC Alone ([3]; K. pneumoniae KP002): 64 µg/mL; MBI 26 MIC, +Erythro. ([3]; K. pneumoniae KP002): 32 µg/mL; MBI 26 MIC +Vancomycin ([4]; E. casseliflavus 97056 VanC): 2 µg/mL; MIC in combination ([4]; E. casseliflavus 97056 VanC): 1 µg/mL; MIC Alone ([4]; E. casseliflavus 97056 VanC, pair Teicoplanin / MBI 26): 64 µg/mL; MIC Alone ([4]; E. casseliflavus 97056 VanC, pair Vancomycin / MBI 26): 8 µg/mL; MBI 26 MIC +Vancomycin ([4]; E. casseliflavus 97057 VanC): 0.5 µg/mL; MIC in combination ([4]; E. casseliflavus 97057 VanC): 0.5 µg/mL; MIC Alone ([4]; E. casseliflavus 97057 VanC, pair Teicoplanin / MBI 26): 64 µg/mL; MIC Alone ([4]; E. casseliflavus 97057 VanC, pair Vancomycin / MBI 26): 2 µg/mL; MBI 26 MIC +Vancomycin ([4]; E. casseliflavus 97058 VanC): 0.5 µg/mL; MIC in combination ([4]; E. casseliflavus 97058 VanC): 0.25 µg/mL; MIC Alone ([4]; E. casseliflavus 97058 VanC, pair Teicoplanin / MBI 26): 32 µg/mL; MIC Alone ([4]; E. casseliflavus 97058 VanC, pair Vancomycin / MBI 26): 4 µg/mL; MBI 26 MIC +Vancomycin ([4]; E. casseliflavus 97059 VanC): 1 µg/mL; MIC in combination ([4]; E. casseliflavus 97059 VanC): 0.5 µg/mL; MIC Alone ([4]; E. casseliflavus 97059 VanC, pair Teicoplanin / MBI 26): 64 µg/mL; MIC Alone ([4]; E. casseliflavus 97059 VanC, pair Vancomycin / MBI 26): 32 µg/mL; MBI 26 MIC +Vancomycin ([4]; E. casseliflavus 97060 VanC): 1 µg/mL; MIC in combination ([4]; E. casseliflavus 97060 VanC): 0.25 µg/mL; MIC Alone ([4]; E. casseliflavus 97060 VanC, pair Teicoplanin / MBI 26): 64 µg/mL; MIC Alone ([4]; E. casseliflavus 97060 VanC, pair Vancomycin / MBI 26): 0.5 µg/mL; MBI 26 MIC +Vancomycin ([4]; E. gallinarum 97044 VanC): 1 µg/mL; MIC in combination ([4]; E. gallinarum 97044 VanC): 0.5 µg/mL; MIC Alone ([4]; E. gallinarum 97044 VanC, pair Teicoplanin / MBI 26): 64 µg/mL; MIC Alone ([4]; E. gallinarum 97044 VanC, pair Vancomycin / MBI 26): 8 µg/mL; MBI 26 MIC +Vancomycin ([4]; E. gallinarum 97046 VanC): 1 µg/mL; MIC in combination ([4]; E. gallinarum 97046 VanC): 4 µg/mL; MIC Alone ([4]; E. gallinarum 97046 VanC, pair Teicoplanin / MBI 26): 8 µg/mL; MIC Alone ([4]; E. gallinarum 97046 VanC, pair Vancomycin / MBI 26): 2 µg/mL; MBI 26 MIC +Vancomycin ([4]; E. gallinarum 97047 VanC): 32 µg/mL; MIC in combination ([4]; E. gallinarum 97047 VanC): 8 µg/mL; MIC Alone ([4]; E. gallinarum 97047 VanC, pair Teicoplanin / MBI 26): 64 µg/mL; MIC Alone ([4]; E. gallinarum 97047 VanC, pair Vancomycin / MBI 26): 64 µg/mL; MBI 26 MIC +Vancomycin ([4]; E. gallinarum 97048 VanC): 1 µg/mL; MIC in combination ([4]; E. gallinarum 97048 VanC): 2 µg/mL; MIC Alone ([4]; E. gallinarum 97048 VanC, pair Teicoplanin / MBI 26): 8 µg/mL; MIC Alone ([4]; E. gallinarum 97048 VanC, pair Vancomycin / MBI 26): 2 µg/mL; MBI 26 MIC +Vancomycin ([4]; E. gallinarum 97049 VanC): 32 µg/mL; MIC in combination ([4]; E. gallinarum 97049 VanC): 16 µg/mL; MIC Alone ([4]; E. gallinarum 97049 VanC, pair Teicoplanin / MBI 26): 64 µg/mL; MIC Alone ([4]; E. gallinarum 97049 VanC, pair Vancomycin / MBI 26): 64 µg/mL; Peptide MIC ([5]; S. aureus SA7609, pair Erythromycin / MBI 26): 1 µg/mL; Peptide MIC ([5]; S. aureus SA7795, pair Erythromycin / MBI 26): 8 µg/mL; Peptide MIC ([5]; S. aureus SA7796, pair Erythromycin / MBI 26): 2 µg/mL; Peptide MIC ([5]; S. aureus SA7818, pair Methicillin / MBI 26): 2 µg/mL; Peptide MIC ([5]; S. aureus SA7835, pair Erythromycin / MBI 26): 2 µg/mL; Peptide MIC ([5]; S. aureus SA7835, pair Methicillin / MBI 26): 16 µg/mL; Peptide MIC ([5]; S. epidermidis SE8403, pair Erythromycin / MBI 26): 2 µg/mL; Peptide MIC ([5]; S. epidermidis SE8410, pair Erythromycin / MBI 26): 1 µg/mL; Peptide MIC ([5]; S. epidermidis SE8411, pair Erythromycin / MBI 26): 1 µg/mL; Peptide MIC ([5]; S. epidermidis SE8497, pair Clindamycin / MBI 26): 2 µg/mL; Peptide MIC ([5]; S. epidermidis SE8497, pair Erythromycin / MBI 26): 1 µg/mL; Peptide MIC ([5]; S. epidermidis SE8503, pair Erythromycin / MBI 26): 1 µg/mL; Peptide MIC ([5]; S. epidermidis SE8565, pair Erythromycin / MBI 26): 1 µg/mL; Peptide MIC ([5]; S. haemolyticus SH8472, pair Ampicillin / MBI 26): 16 µg/mL; Peptide MIC ([5]; S. haemolyticus SH8563, pair Methicillin / MBI 26): 2 µg/mL; Peptide MIC ([5]; S. haemolyticus SH8575, pair Ampicillin / MBI 26): 8 µg/mL; Peptide MIC ([5]; S. haemolyticus SH8578, pair Erythromycin / MBI 26): 0.1 µg/mL; Peptide MIC ([5]; S. haemolyticus SH8597, pair Clindamycin / MBI 26): 1 µg/mL

Reference: patent publication US6503881B2 (priority 1996, dated 2003)
